A word on the IC50: it is the concentration that gives 50% inhibition.

Converted amounts (≈) assume the structure as drawn. “And” between values parts separate entries of the source, which are not always exact repeats. Equal entries are not always repeated. Where only a bound is given, the exact number is not on record here.

The test system of one series is Trypanosoma brucei. Description: DNDI: Inhibition of Human African Trypanosomiasis, SBRI 427, in vitro. The class given is functional, organism-based.
Series [1] is described as follows: DNDI: Cytotoxicity against L929 mouse fibroblasts, CYTO-SP, 24 hour. In kind it is toxicity, cell-based. To be noted: mouse, L929 mouse fibroblasts.
Series [2] in a line: DNDI: Cytotoxicity against L929 mouse fibroblasts, 72 hour. To be noted: mouse, L929 mouse fibroblasts. The class given is toxicity, cell-based.
Where [3] appears, read: Trypanosoma brucei, SBRI 427, read-out: IC50.

For `COc1ccc(C(=O)Cc2ccccc2)cc1`, in the series on Trypanosoma brucei (setting [3]), the IC50 was more than 5 µg/mL. In series [1], this compound gave an IC50 at 24 h of more than 50 µg/mL. For `Cc1ccc2cccc(Oc3ccc(/C(=N/O)NC4CCCCC4)cn3)c2n1`, in that order: 1.08 µg/mL (≈ 2.87 µM) and more than 50 µg/mL. On the same counts, the results for `O/N=C(\NC1CCCCC1)c1ccc(Oc2ccc(Cl)cc2)nc1` are 1.2 µg/mL (≈ 3.47 µM) and 30.8 µg/mL (≈ 89.1 µM). On the same counts, the results for `CO/N=C/c1ccccc1-c1ccccc1` are more than 5 µg/mL and more than 50 µg/mL. With `CC1CCC(N/C(=N\O)c2cccnc2Oc2ccc(-n3cncn3)cc2)CC1` (configuration not stated), the IC50 at 24 h in series [1] was more than 50 µg/mL. `CC(C)(C)CN/C(=N\O)c1ccc(Oc2cc(Cl)ccc2Cl)nc1`: the IC50 with Trypanosoma brucei (setting [3]) is 0.9 µg/mL (≈ 2.44 µM). In addition, the concentration for half-maximal inhibition (IC50) at 24 h in series [1] is more than 50 µg/mL. Regarding `CCN(CC)CCCNc1cc(-c2ccccc2)nc2cc(-c3cccc(F)c3)nn12`, the IC50 in the series on Trypanosoma brucei (setting [3]) came to 1.05 µg/mL (≈ 2.51 µM). Besides, the IC50 at 72 h in series [2] turned out to be 2.51 µg/mL (≈ 6.01 µM).

On to `CN(C)CCNc1cc(-c2ccccc2)nc2cc(-c3cccc(F)c3)nn12`, for which the IC50 in the series on Trypanosoma brucei (setting [3]) was found to be 2.07 µg/mL (≈ 5.51 µM). Also, inhibition in series [2] was half-maximal at 1.78 µg/mL (≈ 4.74 µM) (IC50 at 72 h).

With `Cc1cc(NCCCN2CCCC2=O)n2nc(-c3cccc(F)c3)cc2n1`, the IC50 with Trypanosoma brucei (setting [3]) is more than 5 µg/mL. The same compound had an IC50 at 72 h in series [2] of more than 10 µg/mL. On the same counts, the results for `CC(C)(C)c1cc(=O)n2nc(-c3ccc(F)cc3)cc2[nH]1` are more than 5 µg/mL and more than 10 µg/mL. On to `Cc1cc(N)nn1Cc1coc(-c2ccc(OC(F)(F)F)cc2)n1`, for which the IC50 in the series on Trypanosoma brucei (setting [3]) was determined as 1.18 µg/mL (≈ 3.49 µM). This compound gave an IC50 at 24 h in series [1] of more than 50 µg/mL. `CCCCNCc1coc(-c2ccc(C(C)(C)C)cc2)n1`: in the series on Trypanosoma brucei, the IC50 was 1.84 µg/mL and 0.87 µg/mL. Besides, the IC50 at 24 h in series [1] came out at 28.1 µg/mL (≈ 98.1 µM). Take `CN1CCCC1CCNCc1coc(-c2ccc(Br)cc2)n1` (configuration not stated): the IC50 in the series with Trypanosoma brucei is 1.22 µg/mL and 0.45 µg/mL. In series [1], this compound showed an IC50 at 24 h of 25.1 µg/mL (≈ 68.9 µM). Consider `CC(C)(C)OC(=O)N1CCN(c2cc(C(C)(C)C)nc3cc(-c4ccc(F)cc4)nn23)CC1`, for which, in the series on Trypanosoma brucei (setting [3]), the IC50 is more than 5 µg/mL. This compound had an IC50 at 72 h in series [2] of more than 10 µg/mL. As for `COc1cc(C)ccc1Oc1nc(C)ccc1/C(=N/O)NCC(C)C`, in series [1], the IC50 at 24 h was more than 50 µg/mL.

In the case of `Cc1ccc(Oc2nc(C)ccc2/C(=N/O)NC2CCCCC2)c(C)c1`, in the series with Trypanosoma brucei, the IC50 is 0.78 µg/mL and 0.28 µg/mL. This compound also displayed an IC50 at 24 h in series [1] of 34 µg/mL (≈ 96.2 µM).

In the case of `N#Cc1cccnc1Oc1ccccc1F`, the IC50 in the series on Trypanosoma brucei (setting [3]) was more than 5 µg/mL. Moreover, in series [1], the IC50 at 24 h was more than 50 µg/mL. As for `CCO/N=C/c1ccc(OC)cc1`, the IC50 in the series with Trypanosoma brucei (setting [3]) is more than 5 µg/mL. This compound also showed an IC50 at 24 h in series [1] of more than 50 µg/mL. `Fc1cccc(-c2cc3nc(-c4ccccc4)cc(NCCN4CCOCC4)n3n2)c1`: the IC50 with Trypanosoma brucei (setting [3]) is more than 5 µg/mL. The same compound returned a half-maximal inhibitory concentration (IC50) at 72 h in series [2] of more than 10 µg/mL. `COc1ccccc1Oc1ncccc1C#N`: the IC50 in the series on Trypanosoma brucei (setting [3]) is more than 5 µg/mL. In series [1], this compound had an IC50 at 24 h of more than 50 µg/mL.

Take `COc1ccc(/C=N/OCc2ccccc2)cc1`: the half-inhibitory concentration (IC50) in the series with Trypanosoma brucei (setting [3]) is more than 5 µg/mL. The IC50 at 24 h in series [1] is more than 50 µg/mL. Consider `Cc1cc(N2CCN(C(=O)OC(C)(C)C)CC2)n2nc(-c3cccc(F)c3)cc2n1`, for which the IC50 in the series with Trypanosoma brucei (setting [3]) is more than 5 µg/mL. In series [2], this compound returned an IC50 at 72 h of more than 10 µg/mL. Consider `CC(C)CO/N=C/c1ccccc1-c1ccccc1`, for which, in the series on Trypanosoma brucei (setting [3]), the IC50 was more than 5 µg/mL. The compound further had an IC50 at 24 h in series [1] of more than 50 µg/mL. `Cc1ccc(Oc2ccc(/C(=N/O)NCC3CC3)cn2)c(C)c1`: in series [1], the IC50 at 24 h is more than 50 µg/mL. On to `Fc1cccc(-c2cc3nc(-c4ccccc4)cc(NCCN4CCCC4)n3n2)c1`, for which the IC50 in the series with Trypanosoma brucei (setting [3]) was 2.22 µg/mL (≈ 5.53 µM). Further, in series [2], half-maximal inhibition (IC50 at 72 h) required 1.54 µg/mL (≈ 3.84 µM). `COc1ccc(-c2cc3[nH]c(-c4ccccc4)cc(=O)n3n2)cc1`: in the series with Trypanosoma brucei (setting [3]), the IC50 was more than 5 µg/mL. Moreover, the IC50 at 72 h in series [2] was more than 10 µg/mL.

For the compound `Cc1ccc(/C(=N/O)NC2CCC(C)CC2)c(OCc2ccccn2)n1` (configuration not stated), in series [1], the IC50 at 24 h was more than 50 µg/mL. In the case of `CC(C)(C)OC(=O)N1CCC(Nc2cc(-c3ccccc3)nc3cc(-c4ccc(F)cc4)nn23)C1` (configuration not stated), the IC50 in the series with Trypanosoma brucei (setting [3]) is more than 5 µg/mL. Besides, the IC50 at 72 h in series [2] was more than 10 µg/mL. On to `C=CCO/N=C/c1ccccc1-c1ccccc1`, for which, in the series with Trypanosoma brucei (setting [3]), the IC50 is more than 5 µg/mL. The same compound gave an IC50 at 24 h in series [1] of more than 50 µg/mL. Turning to `CC1CC(NCc2coc(-c3ccc(C(F)(F)F)cc3)n2)CC(C)(C)C1` (configuration not stated), the IC50 worked out at 0.54 µg/mL (≈ 1.47 µM) in the series with Trypanosoma brucei and 1.07 µg/mL (≈ 2.92 µM) in the series on Trypanosoma brucei (setting [3]). In series [1], this compound showed an IC50 at 24 h of more than 50 µg/mL. As to `CC1CCCCN1CCCNCc1coc(-c2ccc(Cl)cc2Cl)n1` (configuration not stated), the IC50 in the series on Trypanosoma brucei is 2.68 µg/mL and 1.13 µg/mL. The compound further yielded an IC50 at 24 h in series [1] of 42.2 µg/mL (≈ 110 µM). Turning to `Fc1cccc(-c2cc3nc(-c4ccccc4)cc(NCCN4CCCCC4)n3n2)c1`, the IC50 with Trypanosoma brucei (setting [3]) turned out to be 3.82 µg/mL (≈ 9.19 µM). Besides, in series [2], the IC50 at 72 h was 9.91 µg/mL (≈ 23.8 µM). Compound `Cc1cc(Oc2ccc(/C(=N/O)NCC3CC3)cn2)cc(C(C)C)c1` had an IC50 at 24 h in series [1] of 27 µg/mL (≈ 79.5 µM). On to `COc1cc(C)ccc1Oc1ncccc1/C(N)=N/O`, for which, in the series with Trypanosoma brucei (setting [3]), the IC50 was more than 5 µg/mL. This compound also returned an IC50 at 24 h in series [1] of more than 5 µg/mL. Turning to `COc1ccc(/C(Cc2ccccc2)=N/O)cc1`, the IC50 in the series with Trypanosoma brucei (setting [3]) is more than 5 µg/mL. In series [1], this compound gave an IC50 at 24 h of more than 50 µg/mL. In the case of `Cc1cc(=O)n2nc(-c3cccc(F)c3)cc2[nH]1`, the IC50 in the series on Trypanosoma brucei (setting [3]) was more than 5 µg/mL. This compound also yielded an IC50 at 72 h in series [2] of more than 10 µg/mL.

Take `Cc1cc(NC2CCN(C(=O)OC(C)(C)C)C2)n2nc(-c3cccc(F)c3)cc2n1` (configuration not stated): the IC50 with Trypanosoma brucei (setting [3]) was more than 5 µg/mL. In addition, the IC50 at 72 h in series [2] is more than 10 µg/mL.

For `COc1ccc(/C=N/OCC(C)C)cc1`, the 50% inhibitory concentration (IC50) in the series on Trypanosoma brucei (setting [3]) was more than 5 µg/mL. The same compound yielded an IC50 at 24 h in series [1] of more than 50 µg/mL.
